Reference: the supplement of paper PMC6045584
± gives the standard deviation of the averaged measurements.

What was measured:
[1] = compound: Cc1nc(Nc2n[nH]c3c2CN(C(=O)N[C@H](CN(C)C)c2ccccc2)C3(C)C)c2sccc2n1; assay: surviving fraction relative to DMSO-only wells; higher = less growth inhibition; conditions: exposure time: 5 days
Summary of the method: (§1)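 Viability was scored with CellTiter-Glo luminescence and normalised to the median of DMSO-only wells as surviving fraction. Beforehand, log-phase tumour cell lines were seeded at 250–500 cells per well in 384-well plates, allowed 24 hours, and exposed continuously for five days to inhibitors at 0.5, 1, 5, 10, 50, 100, 500 and 1000 nM. Only lines whose three screens gave replicate Pearson r >0.7 and median Z' >0.3 were kept.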

AZD4547 = compound: COc1cc(CCc2cc(NC(=O)c3ccc(N4CC(C)NC(C)C4)cc3)n[nH]2)cc(OC)c1 [AZD4547]; assay: as above; conditions: exposure time: 5 days
Summary of the method: as §1

Row | Test System | surviving fraction ([1]; 0.5 nM) | surviving fraction ([1]; 1 nM) | surviving fraction ([1]; 5 nM) | surviving fraction ([1]; 10 nM) | surviving fraction ([1]; 50 nM) | surviving fraction ([1]; 100 nM) | surviving fraction ([1]; 500 nM) | surviving fraction ([1]; 1000 nM) | surviving fraction (AZD4547; 0.5 nM) | surviving fraction (AZD4547; 1 nM) | surviving fraction (AZD4547; 5 nM) | surviving fraction (AZD4547; 10 nM) | surviving fraction (AZD4547; 50 nM) | surviving fraction (AZD4547; 100 nM) | surviving fraction (AZD4547; 500 nM) | surviving fraction (AZD4547; 1000 nM)
1 | SYO1 SYNOVIAL | 0.65 ± 0.017 | 0.486 ± 0.01 | 0.269 ± 0.023 | 0.214 ± 0.0035 | 0.166 ± 0.016 | 0.129 ± 0.013 | 0.0548 ± 0.0036 | 0.0347 ± 0.0023 | 0.897 ± 0.051 | 0.942 ± 0.022 | 0.744 ± 0.037 | 0.737 ± 0.021 | 0.664 ± 0.012 | 0.686 ± 0.02 | 0.637 ± 0.041 | 0.556 ± 0.046
2 | T47D BREAST | 1.16 ± 0.034 | 1.12 ± 0.025 | 0.845 ± 0.033 | 0.879 ± 0.023 | 0.887 ± 0.032 | 0.87 ± 0.014 | 0.776 ± 0.013 | 0.528 ± 0.04 | 1.02 ± 0.044 | 1.05 ± 0.013 | 1.06 ± 0.043 | 1.04 ± 0.034 | 1.09 ± 0.018 | 1.12 ± 0.025 | 1.18 ± 0.03 | 1.2 ± 0.073
3 | U2OS BONE | 0.974 ± 0.038 | 0.901 ± 0.058 | 0.631 ± 0.016 | 0.453 ± 0.025 | 0.188 ± 0.025 | 0.142 ± 0.015 | 0.075 ± 0.0027 | 0.0633 ± 0.0015 | 0.992 ± 0.042 | 1.024 ± 0.0069 | 0.95 ± 0.015 | 0.901 ± 0.024 | 0.777 ± 0.013 | 0.759 ± 0.029 | 0.711 ± 0.012 | 0.648 ± 0.0075
4 | VCAP PROSTATE | 0.665 ± 0.11 | 0.496 ± 0.006 | 0.428 ± 0.025 | 0.398 ± 0.025 | 0.451 ± 0.084 | 0.397 ± 0.022 | 0.245 ± 0.036 | 0.0417 ± 0.0063 | 0.966 ± 0.078 | 0.976 ± 0.043 | 1.1 ± 0.12 | 0.989 ± 0.12 | 0.948 ± 0.07 | 1.07 ± 0.07 | 0.795 ± 0.048 | 0.705 ± 0.065
5 | VP229 BREAST | 1.23 ± 0.085 | 1.15 ± 0.18 | 0.684 ± 0.099 | 0.597 ± 0.089 | 0.484 ± 0.055 | 0.386 ± 0.036 | 0.301 ± 0.031 | 0.311 ± 0.026 | 1.32 ± 0.12 | 1.38 ± 0.049 | 1.42 ± 0.099 | 1.38 ± 0.065 | 1.25 ± 0.1 | 1.42 ± 0.092 | 1.4 ± 0.25 | 1.32 ± 0.033
6 | YAMATO SYNOVIAL | 0.784 ± 0.03 | 1.19 ± 0.074 | 0.432 ± 0.036 | 1.35 ± 0.091 | 0.354 ± 0.0056 | 1.42 ± 0.17 | 0.353 ± 0.024 | 1.39 ± 0.074 | 1.19 ± 0.024 | 1.22 ± 0.074 | 1.25 ± 0.038 | 1.22 ± 0.046 | 1.16 ± 0.064 | 1.08 ± 0.045 | 0.911 ± 0.05 | 0.816 ± 0.048
7 | ZR751 BREAST | 0.872 ± 0.058 | 0.818 ± 0.052 | 0.575 ± 0.056 | 0.515 ± 0.0069 | 0.427 ± 0.029 | 0.463 ± 0.026 | 0.492 ± 0.041 | 0.462 ± 0.037 | 0.902 ± 0.092 | 0.949 ± 0.095 | 0.838 ± 0.076 | 0.887 ± 0.041 | 0.837 ± 0.15 | 1.01 ± 0.029 | 1.05 ± 0.093 | 0.971 ± 0.059
